Experimental data as given in ChEMBL document CHEMBL4340537, “A cross-linking approach to map small molecule-RNA binding sites in cells” (Bioorg Med Chem Lett, 2019).
Active and inactive are the calls of the source. The calls are words filed in the database; no cut-off is given here. Numbered stars: 1 amine (or outer) side, 2 acyl side, 3 side chain; on linkers, the order of the positions; unused ones are H or OH. Square brackets hold non-standard residues; d marks the D form. Peptide text beside a SMILES is read from it. * marks the point of attachment. Biotinyl(3aR,4R,6aS) = O=C1N[C@@H]2[C@@H](CS[C@@H]2CCCCC(=O)*)N1; N(2-Aminoethyl)Gly = O=C(CN(CCN[*:3])[*:1])[*:2]; Chlorambucil = O=C(CCCc1ccc(N(CCCl)CCCl)cc1)*; Gly(N-propargyl) = C#CCNCC(=O)O; NPrGly = CCCNCC(=O)O

Assays:
microRNA 96 [1] = experiment: Inhibition of miR-96 RNA in human MDA-MB-231 cells by TargetScan assay; format: cell-based
MDA-MB-231 [2] = experiment: Binding affinity to pri-miR-96 RNA in human MDA-MB-231 cells assessed as reduction in matured miR-96 levels at 50 nM for 24 hrs by RT-qPCR method; format: cell-based
MDA-MB-231 [3] = experiment: Binding affinity to pri-miR-96 RNA in human MDA-MB-231 cells assessed as increase in RNA abundance at 50 nM for 24 hrs by RT-qPCR relative to control; format: cell-based
MDA-MB-231 [4] = experiment: Binding affinity to pri-miR-96 RNA in human MDA-MB-231 cells assessed as increase in FOXO1 protein expression at 50 nM for 24 hrs by RT-qPCR method; format: cell-based
MDA-MB-231 [5] = experiment: Induction of apoptosis in human MDA-MB-231 cells assessed as increase in caspase 3/7 activity up to 500 nM incubated for 48 hrs by caspase glo 3/7 assay; format: functional, cell-based
[6] = Binding affinity to 32P-labeled pri-miR-96 RNA (unknown origin) incubated for 4 hrs by streptavidin based liquid scintillation counting dependent pull down assay
[7] = Binding affinity to pri-miR-96 RNA (unknown origin) at 1000 nM in presence of Targaprimir-96 by in vitro competitive (C-)Chem CLIP assay
microRNA 96 [8] = experiment: Inhibition of miR-96 RNA in human MDA-MB-231 cells by volcano plot analysis; format: cell-based
MCF-10A = experiment: Induction of apoptosis in human MCF10A cells assessed as increase in caspase 3/7 activity up to 500 nM incubated for 48 hrs by caspase glo 3/7 assay; format: cell-based

SMILES	inhibition (microRNA 96 [1])	Activity (MDA-MB-231 [2])	fold change (FC) (MDA-MB-231 [3])	Activity (MDA-MB-231 [4])	Activity (MDA-MB-231 [5])	Activity [6]	Activity [7]	inhibition (microRNA 96 [8])	Activity (MCF-10A)
CCCN(CC(=O)N(CC(=O)N(CCNC(=O)CCCC[C@H]1SC[C@H]2NC(=O)N[C@H]21)CC(N)=O)Cc1cn(CCCNC(=O)CCCOc2c(C(C)(C)C)cc(-c3nc4cc(N5CCN(C)CC5)ccc4[nH]3)cc2C(C)(C)C)nn1)C(=O)CN(CCNC(=O)CCCc1ccc(N(CCCl)CCCl)cc1)C(=O)CCCOc1cccc(-c2nc3ccc(-c4nc5ccc(N6CCN(C)CC6)cc5[nH]4)cc3[nH]2)c1	Active	Active	1.5	Active	Active	Active	inactive	Active	–
CCCN(CC(=O)N(CCC)CC(=O)N(CC(N)=O)Cc1cn(CCCNC(=O)CCCOc2c(C(C)(C)C)cc(-c3nc4cc(N5CCN(C)CC5)ccc4[nH]3)cc2C(C)(C)C)nn1)C(=O)CCCOc1cccc(-c2nc3ccc(-c4nc5ccc(N6CCN(C)CC6)cc5[nH]4)cc3[nH]2)c1	–	Active	1.5	Active	Active	–	–	–	Non-Toxic
CCCN(CC(=O)N(CC(=O)N(CCNC(=O)CCCC[C@H]1SC[C@H]2NC(=O)N[C@H]21)CC(N)=O)Cc1cn(CCCNC(=O)CCCOc2c(C(C)(C)C)cc(-c3nc4cc(N5CCN(C)CC5)ccc4[nH]3)cc2C(C)(C)C)nn1)C(=O)CN(CCNC(=O)CCCc1ccc(N(CCCl)CCCl)cc1)C(=O)CCCOc1cccc(-c2nc3ccc(-c4nc5cc(N6CCN(C)CC6)ccc5[nH]4)cc3[nH]2)c1	–	–	–	–	–	–	–	–	Non-Toxic
C#CCN(CC(=O)N(CCNC(=O)CCCC[C@H]1SC[C@H]2NC(=O)N[C@H]21)CC(N)=O)C(=O)CN(CCC)C(=O)CN(CCNC(=O)CCCc1ccc(N(CCCl)CCCl)cc1)C(C)=O (Ac-[N(2-Aminoethyl)Gly](Chlorambucil)[NPrGly][Gly(N-propargyl)][N(2-Aminoethyl)Gly](Biotinyl(3aR,4R,6aS))-NH2)	–	inactive	–	inactive	inactive	inactive	–	–	–
